Measurements as given in article PMC12072072 (International Journal of Molecular Sciences, 2025).
Where two headings read alike, the source gives them in different places.

Tests used:
[1] = system: SKOV-3 (human ovarian carcinoma); assay: MTT assay, SKOV-3 cells; format: cell-based; conditions: for IC50: SKOV-3 cells, value (standard deviation), read-out: IC50 [μM] (±s) SKOV-3; for Selectivity Index (SI) SKOV-3: IC50 of HDFs / IC50 of SKOV-3
Experimental: (§1) Each medium was supplemented with 10% fetal bovine serum, 1% L-glutamine, and 1% penicillin/streptomycin solution. The cell lines were incubated at 37 °C in a humidified atmosphere containing 5% CO2. Cells were counted using the Fuchs–Rosenthal counting chamber (hemocytometer) with modifications.
(§2) The final product of this reaction gives violet formazan crystals. The number of live cells is proportional to the amount of formazan and is represented by the violet dye reagent. The details of the experiments are given, e.g., in [54].
(§3) Statistical analyses for the cytotoxic activity were carried out using the nonparametric Kruskal–Wallis H test for unpaired data and ANOVA Friedman two-way analysis of variance test for paired data. Statistical significance was tested using Dunn’s post-hoc test. The IC50 values compared to the control IC50 were calculated using GraphPad Prism v. 10.1.1. software.

[2] = system: A-549 (human lung carcinoma); assay: MTT assay, A-549 cells; format: cell-based; conditions: for IC50: Homo sapiens, A549, MTT assay, A-549 cells, value (standard deviation), read-out: IC50 [μM] (±s) A-549; for Selectivity Index (SI) A-549: IC50 of HDFs / IC50 of A-549
Experimental: as §1, §2, §3

[3] = system: PC-3 (human prostate carcinoma); assay: MTT assay, PC-3 cells; format: cell-based; conditions: for IC50: PC-3 cells, value (standard deviation), read-out: IC50 [μM] (±s) PC-3; for Selectivity Index (SI) PC-3: IC50 of HDFs / IC50 of PC-3
Experimental: as §1, §2, §3

[4] = system: HDFs (human dermal fibroblasts); assay: MTT assay, HDFs (normal cells); format: cell-based; conditions: Fibroblast, value (standard deviation), read-out: IC50 [μM] (±s) HDFs
Experimental: as §1, §2, §3

[5] = system: CHO (Chinese hamster ovary); assay: MTT assay, CHO cells; format: cell-based; conditions: for IC50: Cricetulus griseus, CHO, MTT assay, CHO cells, value (standard deviation), read-out: IC50 [μM] (±s) CHO; for Selectivity Index (SI) CHO: IC50 of HDFs / IC50 of CHO
Experimental: as §1, §2, §3

[6] = system: A-549, PC-3, and SKOV-3; assay: MTT assay, statements over the cancer cell lines together; format: cell-based, human; conditions: for IC50: MTT assay, A-549, PC-3 and SKOV-3 together, summary of Table 3, read-out: IC50 stated over the cancer cell lines together; for Selectivity Index stated over the tested cell lines together: IC50 of HDFs / IC50 of cell line, text summary of Table 4
Experimental: as §1, §2

[7] = system: SKOV-3 (human ovarian carcinoma); assay: Cell Death Detection ELISA Plus, SKOV-3; format: cell-based; conditions: DNA fragmentation ELISA, sample vs negative control; tested at 0.1, 1.0 and 10.0 µg/mL, concentration of the value not stated
Experimental: (§4) The induction of apoptosis by tested compounds was determined with Cell Death Detection ELISA Plus from Roche Diagnostics GmbH (Mannheim, Germany).
(§5) The Cell Death Detection ELISA PLUS photometric enzyme immunoassay is used to quantitatively in vitro determination of cytoplasmic histone-associated DNA fragments (mono- and oligonucleosomes) after induced cell death. The kit contains a stop solution that allows users to terminate the substrate reaction and run the assay under defined conditions, making it suitable for high-throughput applications. This kit can be used for the relative quantification of histone-complexed DNA fragments (mono- and oligonucleosomes) out of the cytoplasm of cells after the induction of apoptosis or when released from necrotic cells. […] The antibodies used in the assay are not species-specific; therefore, the kit may be used to assay cells from various species. The details of the experiments are given in [74]. As an internal reference compound (cytostatic drug), camptothecin (topoisomerase I-inhibitor) was used in this study to induce apoptosis. The negative control is the sample without camptothecin treatment. […] Cells were counted using a Fuchs–Rosenthal counting chamber (hemocytometer) with modifications. The apoptotic index was calculated based on the enrichment of mono- and oligonucleosomes according to the following equation:apoptotic index = [{A405(sample) − A490(sample)}/{A405(negative control) − A490(negative control)}]

[8] = system: PC-3 (human prostate carcinoma); assay: Cell Death Detection ELISA Plus, PC-3; format: cell-based; conditions: DNA fragmentation ELISA, sample vs negative control; tested at 0.1, 1.0 and 10.0 µg/mL, concentration of the value not stated
Experimental: as §4, §5

[9] = Homo sapiens, SK-OV-3, MTT assay

Row | Compound | IC50 [1, 9] [µM] | Selectivity Index (SI) SKOV-3 [1] | IC50 [2] [µM] | Selectivity Index (SI) A-549 [2] | IC50 ([3]; Homo sapiens, PC-3, MTT assay) [µM] | Selectivity Index (SI) PC-3 [3] | IC50 [4] [µM] | IC50 [5] [µM] | Selectivity Index (SI) CHO [5] | IC50 ([6]; Homo sapiens) [µM] | Selectivity Index stated over the tested cell lines together [6] | Apoptotic Index (AI) SKOV-3 [7] | Apoptotic Index (AI) PC-3 [8] | IC50 [6] [µM] | IC50 ([1]; MTT assay) [µM] | IC50 ([3]; MTT assay) [µM]
1 | CC1(C)CC[C@@]23CC[C@]4(C)[C@@](OC2=O)(C3C1)[C@@H](Br)CC1[C@@]2(C)CCC(=S)NC(C)(C)C2CC[C@]14C (stereo partly drawn) [Compound 14, 12α-bromo-3-thioxo-3a-aza-A-homoolean-28-oic acid 28β→13β-olide] | 68.3 | 1.23 | 66.2 | 1.27 | 65.9 | 1.28 | 84.1 | 87 | 0.97 | 11 to 90 | – | – | – | – | – | –
2 | CC1(C)CC[C@@]23CC[C@]4(C)[C@@](OC2=O)(C3C1)[C@@H](Br)CC1[C@@]2(C)CC[C@H](O)C(C)(C)C2CC[C@]14C (stereo partly drawn) [Compound 9, 12α-Bromo-3β-hydroxyolean-28-oic acid 28β→13β-olide] | 26.4 | 1.93 | 29.9 | 1.71 | 26.1 | 1.95 | 51 | 42 | 1.21 | 11 to 90 | ~2 | – | – | – | – | –
3 | CC(=O)O[C@H]1CC[C@@]2(C)C(CC[C@]3(C)C2CC(=O)[C@]24OC(=O)[C@@]5(CCC(C)(C)CC52)CC[C@@]34C)C1(C)C (stereo partly drawn) [Compound 4, 3β-Acetoxy-12-oxoolean-28-oic acid 28β→13β-olide] | 22.8 | 1.84 | 24.7 | 1.70 | 25.9 | 1.62 | 42 | 52.7 | 0.79 | 24 to 38 | ~2 | – | – | – | – | –
4 | CC1(C)CC[C@@]23CC[C@@]4(C)[C@]5(C)CCC6C(C)(C)[C@@H](O)CC[C@]6(C)C5CC(=O)[C@]4(OC2=O)C3C1 (stereo partly drawn) [Compound 5, 3β-Hydroxy-12-oxoolean-28-oic acid 28β→13β-olide] | 37 | 1.40 | 38 | 1.36 | 31 | 1.67 | 51.8 | 38.2 | 1.35 | 24 to 38 | – | – | – | – | – | –
5 | CC1(C)CC[C@@]23CC[C@]4(C)[C@@](OC2=O)(C3C1)[C@@H](Br)CC1[C@@]2(C)CCC(=NO)C(C)(C)C2CC[C@]14C (stereo partly drawn) [Compound 11] | 21.8 | 1.33 | 34.6 | 0.83 | 25.1 | 1.15 | 28.9 | 55.4 | 0.52 | 22 to 35 | – | – | – | – | – | –
6 | CC(=O)OC1CCC2(C)C(CCC3(C)C2CC(=NO)C24OC(=O)C5(CCC(C)(C)CC52)CCC34C)C1(C)C (stereo not drawn) [Compound 6, 3β-Acetoxy-12-hydroxyiminoolean-28-oic acid 28β→13β-olide] | 1.73 | 2.26 | 1.27 | 3.08 | 1.88 | 2.08 | 3.91 | – | 0.71 | 1 to 9 | exceeds 2 | 7.22 (0.06) | 7.28 (0.02) | – | – | –
7 | C=C(C)C1CC[C@]2(C)C(C[C@H](Br)[C@]34OC(=O)[C@@]5(CCC(C)(C)CC53)CC[C@]42C)[C@@]1(C)CCC#N (stereo partly drawn) [Compound 12, 12α-Bromo-3-nitrilo-3,4-secoolean-4(23)-ene-28-oic acid 28β→13β-olide] | 6.22 | 1.47 | 7.88 | 1.15 | 6.27 | 1.46 | 9.13 | 9.23 | 0.99 | – | – | 5.11 (0.01) | 5.43 (0.05) | < 10 | – | –
8 | CC1(C)CC[C@@]23CC[C@]4(C)[C@@](OC2=O)(C3C1)[C@@H](Br)CC1[C@@]2(C)CCC(=O)C(C)(C)C2CC[C@]14C (stereo partly drawn) [Compound 10, 12α-Bromo-3-oxoolean-28-oic acid 28β→13β-olide] | 12.1 | 3.24 | 15.6 | 2.51 | 12.9 | 3.02 | 39.1 | 21.4 | 1.83 | 11 to 90 | exceeds 2 | 5.05 (0.03) | 5.82 (0.04) | 12 to 15 | – | –
9 | CC(=O)O[C@H]1CC[C@@]2(C)C(CC[C@]3(C)C2C[C@H](O)[C@]24OC(=O)[C@@]5(CCC(C)(C)CC52)CC[C@]43C)C1(C)C (stereo partly drawn) [Compound 2, 3β-Acetoxy-12α-hydroxyolean-28-oic acid 28β→13β-olide] | 1.73 | 2.54 | 4.68 | 1.60 | 1.88 | 2.30 | 7.51 | 4.19 | 1.79 | 1 to 9 | exceeds 2 | 4.71 (0.11) | 4.76 (0.02) | – | 2.96 | 3.26
